# In ChEMBL document CHEMBL5726286, “3-oxo-tetrahydro-furo[3,2-B]pyrrol-4(5H)-yl) derivatives I” (2017):
# pKi: −log10 of the molar value.
# What was measured:
# Cathepsin K = target: T1, Cathepsin K (Homo sapiens, UniProt P43235); experiment: (§1) Enzyme Assay: Recombinant human cathepsins (CatS, CatK, CatL) were purchased from a Enzo Life Sciences. All assays were carried out in 96-well format using a buffer of 50 mM KH2PO4, 50 mM NaCl, 2 mM EDTA, 0.5 mM DTT and 1% Triton-X-100, pH 6.5 for Cathepsin S and a buffer of 50 mM NaOAc, 10 mM EDTA, 1 mM DTT and 0.01% Triton-X-100, pH 5.5 for CatK/L/B. For CatS, the enzyme (0.0007 mU/well) was incubated with fluorogeninc substrate (Z-VVR-AMC, 5 μM) at RT for 10 min. For CatK the enzyme (0.00175 mU/well) was incubated with fluorogeninc substrate (Z-FR-AMC, 40 μM) at RT for 10 min. For CatL, the enzyme (0.000874 mU/well) was incubated with fluorogeninc substrate (Z-VVR-AMC, 40 μM) at RT for 10 min. Flourogenic substrate turnover was detected using a microplate reader (Synergy H4, BioTek). Ki values were calculated using the Cheng Prusoff equation (Cheng & Prosoff 1973).
# T1 sequence (P43235 whole entry): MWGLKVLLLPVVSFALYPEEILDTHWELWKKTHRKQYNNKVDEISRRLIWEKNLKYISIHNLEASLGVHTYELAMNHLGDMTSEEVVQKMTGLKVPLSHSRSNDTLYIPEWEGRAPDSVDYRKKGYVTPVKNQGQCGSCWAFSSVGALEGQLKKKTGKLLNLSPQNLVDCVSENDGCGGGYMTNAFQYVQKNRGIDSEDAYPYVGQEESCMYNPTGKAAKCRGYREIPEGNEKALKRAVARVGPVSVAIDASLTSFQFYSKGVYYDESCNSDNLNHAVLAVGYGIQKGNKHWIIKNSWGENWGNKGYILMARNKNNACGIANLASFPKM
# Cathepsin S = Cathepsin S (Homo sapiens, UniProt P25774); experiment: as §1
# Sequence of Cathepsin S (P25774 whole entry): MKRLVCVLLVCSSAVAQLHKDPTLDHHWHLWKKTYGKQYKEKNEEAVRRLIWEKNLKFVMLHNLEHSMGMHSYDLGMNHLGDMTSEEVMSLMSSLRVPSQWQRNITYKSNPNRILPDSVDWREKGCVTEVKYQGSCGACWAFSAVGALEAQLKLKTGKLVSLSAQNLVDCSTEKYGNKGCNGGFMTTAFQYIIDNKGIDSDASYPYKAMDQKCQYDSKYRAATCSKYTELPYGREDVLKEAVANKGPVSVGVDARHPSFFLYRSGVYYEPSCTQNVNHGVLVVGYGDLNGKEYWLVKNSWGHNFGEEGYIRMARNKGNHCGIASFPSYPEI
Structure (SMILES),pKi (Cathepsin K),pKi (Cathepsin S)
O=C(N[C@H](C(=O)N1C[C@H](Cl)[C@H]2OCC(=O)[C@H]21)C1CCCCC1)c1nnc(-c2ccncc2)s1,7.85,
COc1ccc(-c2ccc(C(=O)N[C@H](C(=O)N3C[C@H](Cl)[C@H]4OCC(=O)[C@H]43)C3CCCCC3)s2)nn1,7.80,6.46
O=C(N[C@H](C(=O)N1C[C@H](Cl)[C@H]2OCC(=O)[C@H]21)C1CCCCC1)c1cnc(-c2ccnnc2)o1,6.56,6.28
O=C(N[C@H](C(=O)N1C[C@H](Cl)[C@H]2OCC(=O)[C@H]21)C1CCCCC1)c1ccc(-c2ccncn2)o1,6.58,6.16
O=C(N[C@H](C(=O)N1C[C@H](Cl)[C@H]2OCC(=O)[C@H]21)C1CCCCC1)c1ccc(-c2cccnc2)o1,7.27,6.21
Cc1nccc(-c2ccc(C(=O)N[C@H](C(=O)N3C[C@H](Cl)[C@H]4OCC(=O)[C@H]43)C3CCCCC3)s2)n1,8.05,6.62
